These results are taken from patent US4393225A, “AI-77 Compounds and pharmaceutically acceptable salts thereof” (Asahi Kasei Kogyo Kabushiki Kaisha, priority 1979, dated 1983).

The test concerns ulcer. The experiment in a line: Anti-ulcer test (restraint and water immersion ulcer in rats, i.p.). It counts as in vivo, Male Wistar rats. The settings on record: Rattus norvegicus, ip, read-out: % Inhibition of Ulcer. As for the experimental part:
The anti-ulcer and anti-edema activity of the compounds was evaluated in efficacy tests described below.
Male Wistar rats weighing about 150 g on average were not fed for 24 hours before the test. Then a solution or suspension of a predetermined concentration of the test compound in physiological saline was administered to them intraperitoneally. One hour after the administration,each rat was restrained in a net cage and submerged in a water both (21° C.) from the tail to xiphistrenun for 6 hours. Test animals were then killed (by dislocation of the cervical vertebrae), the stomach was removed and incised along the curvatura ventriculi major, and the inside wall of the stomach was pathologically examined under microscopic observation. Rats in which the occurrence of an ulceration was substantially not observed were rated O, while others were rated 0.5, 1, 2 or 3, depending on the severity of the ulcer development. The percent inhibition of ulcer was calculated by the following formula: [formula]

Read-outs that look alike come from different tables or passages of the source.

On to `CCOc1cccc2c1C(=O)OC(C(CC(C)C)NC(=O)C(O)C1OC(=O)CC1NCCSC)C2` (centres unmarked) [IIIa-22-39], for which the inhibition in vivo at 50 mg/kg (50 mg/kg i.p.) is 94%.
As to `CCOc1cccc2c1C(=O)OC(C(CC(C)C)NC(=O)C(OC(=O)C(C)C)C1OC(=O)CC1NC)C2` (centres unmarked) [IIIa-32-2], for the setting “50 mg/kg i.p.”, the inhibition in vivo at 50 mg/kg worked out at 44%.
Still for that read-out and setting: to `CCOc1cccc2c1C(=O)OC(C(CC(C)C)NC(=O)C(OC(=O)C(C)C)C1OC(=O)CC1N)C2` (centres unmarked) [IIIa-14-2] belongs 56%; to `CCOc1cccc2c1C(=O)OC(C(CC(C)C)NC(=O)C(O)C1OC(=O)CC1NC(=O)C1CCC=CO1)C2` (centres unmarked) [IIIa-5-58], 44%; to `CCCCCCCC/C=C\CCCCCCCC(=O)NC1CC(=O)OC1C(O)C(=O)NC(CC(C)C)C1Cc2cccc(O)c2C(=O)O1` (centres unmarked) [IIIa-1-13], 44%.
On the same count and under the same terms, with `CCCC(=O)NC1CC(=O)OC1C(OC)C(=O)NC(CC(C)C)C1Cc2cccc(OCC3CCCCO3)c2C(=O)O1` (centres unmarked) [IIIa-7-14] the figure was 33%.
`CC(C)CC(NC(=O)C(O)C1OC(=O)CC1N)C1Cc2cccc(OCCCBr)c2C(=O)O1` (centres unmarked) [IIIa-13-19]: the inhibition in vivo at 50 mg/kg was 100%.
On to `CCOc1cccc2c1C(=O)OC(C(CC(C)C)NC(=O)C(OC)C1OC(=O)CC1NC(=O)CC(C)OC)C2` (centres unmarked) [IIIa-7-7], for which the inhibition in vivo at 50 mg/kg (50 mg/kg i.p.) came out at 33%.
With `CC(C)CC(NC(=N)C(O)C(O)C(N)CC(=O)O)C1Cc2cccc(OC(=O)C(C)C)c2C(=O)O1` (centres unmarked) [Vb-4-1], under “50 mg/kg i.p.”, the inhibition in vivo at 50 mg/kg turned out to be 78%.
Same read-out and setting: to `CCCCNC1CC(=O)OC1C(O)C(=O)NC(CC(C)C)C1Cc2cccc(OCCC(C)C)c2C(=O)O1` (centres unmarked) [IIIa-22-77] belongs 94%.
Same read-out and setting: with `COc1cccc2c1C(=O)OC(C(CC(C)C)NC(=O)C(O)C1OC(=O)CC1NC(C)=O)C2` (centres unmarked) [IIIa-5-5] the figure was 44%.
On the same count and under the same terms, to `CCCCCCCCCCCCCCCCCCOc1cccc2c1C(=O)OC(C(CC(C)C)NC(=O)C(OC(C)=O)C1OC(=O)CC1NC(=O)C1CCCO1)C2` (centres unmarked) [IIIa-6-6] belongs 33%.
On to `CCOc1cccc2c1C(=O)OC(C(CC(C)C)NC(=O)C(O)C1C=CC(=O)O1)C2` (centres unmarked) [IVa-4-2], for which the inhibition in vivo at 50 mg/kg (50 mg/kg i.p.) amounted to 44%.
Still for that read-out and setting: with `CC(C)CC(NC(=O)C(O)C1OC(=O)CC1NC(=O)Cc1ccccc1)C1Cc2cccc(O)c2C(=O)O1` (centres unmarked) [IIIa-1-20] the figure was 66%.
On to `CCNC(CC(=O)O)C(O)C(OC(=O)CC)C(=N)NC(CC(C)C)C1Cc2cccc(OC(=O)C(C)C)c2C(=O)O1` (centres unmarked) [Vb-12-1], for which the inhibition in vivo at 50 mg/kg (50 mg/kg i.p.) was 56%.
Consider `CC(C)CC(NC(=O)C(O)C(O)C(N)CC(=O)NCc1ccc2ccccc2c1)C1Cc2cccc(O)c2C(=O)O1` (centres unmarked) [VII-1-18], for which the inhibition in vivo at 25 mg/kg (25 mg/kg i.p.) is 78%.
As to `CC(=O)Oc1cccc2c1C(=O)OC(C(CC(C)C)NC(=O)C(OC(=O)C(Cl)(Cl)Cl)C1OC(=O)CC1NC(=O)C(Cl)(Cl)Cl)C2` (centres unmarked) [IIIa-3-10], the inhibition in vivo at 50 mg/kg (50 mg/kg i.p.) is 33%.
With `CC(=O)NC1CC(=O)OC1C(OC(C)=O)C(=O)NC(CC(C)C)C1Cc2cccc(OCC(C)C)c2C(=O)O1` (centres unmarked) [IIIa-6-2], the inhibition in vivo at 50 mg/kg (50 mg/kg i.p.) was 33%.
Same read-out and setting: with `CCCCOC(C(=N)NC(CC(C)C)C1Cc2cccc(OCc3ccccc3)c2C(=O)O1)C(O)C(N)CC(=O)O` (centres unmarked) [Vb-7-3] the figure was 56%; with `CC(=O)Oc1cccc2c1C(=O)OC(C(CC(C)C)NC(=N)C(OC(C)=O)C(O)C(CC(=O)O)NCc1ccc(C)cc1)C2` (centres unmarked) [Vb-12-3], 44%; with `CC(C)CC(NC(=O)C(O)C1C=CC(=O)O1)C1Cc2cccc(OCCc3ccc4ccccc4c3)c2C(=O)O1` (centres unmarked) [IVa-4-18], 33%.
Same read-out and setting: to `CCNC1CC(=O)OC1C(OC(=O)CC)C(=O)NC(CC(C)C)C1Cc2cccc(OC(=O)C(C)C)c2C(=O)O1` (centres unmarked) [IIIa-20-2] belongs 56%; to `CCCCCCCCCCCCCCCCCC(=O)Oc1cccc2c1C(=O)OC(C(CC(C)C)NC(=O)C(O)C1C=CC(=O)O1)C2` (centres unmarked) [IVa-3-9], 33%.
Turning to `COC(C)CCNC(=O)CC(N)C(O)C(O)C(=O)NC(CC(C)C)C1Cc2cccc(O)c2C(=O)O1` (centres unmarked) [VII-1-26], the inhibition in vivo at 25 mg/kg (25 mg/kg i.p.) stood at 94%.
Turning to `CC(=O)OC1CCC(C(=O)NC2CC(=O)OC2C(O)C(=O)NC(CC(C)C)C2Cc3cccc(O)c3C(=O)O2)CC1` (centres unmarked) [IIIa-1-74], where the note is “50 mg/kg i.p.”, the inhibition in vivo at 50 mg/kg stood at 66%.
Still for that read-out and setting: to `CCOc1cccc2c1C(=O)OC(C(CC(C)C)NC(=O)C(O)C1OC(=O)CC1NC(=O)CC1CCCCO1)C2` (centres unmarked) [IIIa-5-24] belongs 44%.
Still for that read-out and setting: with `CCOC(=O)CCC(=O)NC1CC(=O)OC1C(O)C(=O)NC(CC(C)C)C1Cc2cccc(O)c2C(=O)O1` (centres unmarked) [IIIa-1-36] the figure was 66%; with `CC(C)CC(NC(=O)C(O)C1C=CC(=O)O1)C1Cc2cccc(OCc3ccc4ccccc4c3)c2C(=O)O1` (centres unmarked) [IVa-4-17], 33%.
For the molecule `CCCCCCCC(=O)NC(CC(N)=O)C(O)C(O)C(=O)NC(CC(C)C)C1Cc2cccc(O)c2C(=O)O1` (centres unmarked) [VII-28-3], the inhibition in vivo at 25 mg/kg (25 mg/kg i.p.) came to 66%.
Consider `CCNC(CC(=O)NCCCl)C(O)C(OC(=O)CC)C(=O)NC(CC(C)C)C1Cc2cccc(O)c2C(=O)O1` (centres unmarked) [VII-11-4], for which the inhibition in vivo at 25 mg/kg came out at 56%.
In the case of `CCOc1cccc2c1C(=O)OC(C(CC(C)C)NC(=O)C(O)C1OC(=O)CC1NC(=O)C1CC1)C2` (centres unmarked) [IIIa-5-18], the inhibition in vivo at 50 mg/kg (50 mg/kg i.p.) amounted to 44%.
On the same count and under the same terms, to `CCC(=O)COc1cccc2c1C(=O)OC(C(CC(C)C)NC(=O)C(O)C1C=CC(=O)O1)C2` (centres unmarked) [IVa-4-20] belongs 44%; to `CCCCCOC(C)CC(=O)NC1CC(=O)OC1C(O)C(=O)NC(CC(C)C)C1Cc2cccc(OCC)c2C(=O)O1` (centres unmarked) [IIIa-5-42], 33%; to `CC(=O)NC1CC(=O)OC1C(OC(C)=O)C(=O)NC(CC(C)C)C1Cc2cccc(OC(C)=O)c2C(=O)O1` (centres unmarked) [IIIa-3-1], 33%.
`CCOc1cccc2c1C(=O)OC(C(CC(C)C)NC(=O)C(O)C1OC(=O)CC1NC(=O)c1ccc(C)cc1)C2` (centres unmarked) [IIIa-5-37]: the inhibition in vivo at 50 mg/kg (50 mg/kg i.p.) came out at 44%.
The same measure, in the same setting: with `Cc1ccc(C(=O)Oc2cccc3c2C(=O)OC(C(CC(C)C)NC(=O)C(O)C2OC(=O)CC2N)C3)cc1` (centres unmarked) [IIIa-12-7] the figure was 78%; with `CC(C)COc1cccc2c1C(=O)OC(C(CC(C)C)NC(=O)C(O)C1OC(=O)CC1NC(=O)C(C)C)C2` (centres unmarked) [IIIa-5-4], 33%; with `CC(C)CC(NC(=O)C(O)C1OC(=O)CC1NC(=O)CC1CC1)C1Cc2cccc(O)c2C(=O)O1` (centres unmarked) [IIIa-1-79], 66%.
As to `CC(C)CC(NC(=O)C(O)C(O)C(N)CC(=O)NCCc1ccccc1)C1Cc2cccc(O)c2C(=O)O1` (centres unmarked) [VII-1-13], the inhibition in vivo at 25 mg/kg (25 mg/kg i.p.) was determined as 89%.
In the case of `CCCCOC(C(=O)NC(CC(C)C)C1Cc2cccc(OCC)c2C(=O)O1)C1OC(=O)CC1NC(=O)c1ccc(C)cc1` (centres unmarked) [IIIa-7-8], the inhibition in vivo at 50 mg/kg (50 mg/kg i.p.) is 22%.
Still for that read-out and setting: to `CCOc1cccc2c1C(=O)OC(C(CC(C)C)NC(=O)C(OC(=O)C(Cl)(Cl)Cl)C1OC(=O)CC1NC(=O)C(Cl)(Cl)Cl)C2` (centres unmarked) [IIIa-6-1] belongs 33%.
For the molecule `CC(C)CCNC(=O)CC(N)C(O)C(O)C(=O)NC(CC(C)C)C1Cc2cccc(O)c2C(=O)O1` (centres unmarked) [VII-1-5], where the note is “25 mg/kg i.p.”, the inhibition in vivo at 25 mg/kg was 100%.
As for `CCC(=O)OC(C(=O)NC(CC(C)C)C1Cc2cccc(O)c2C(=O)O1)C1OC(=O)CC1NC(C)=O` (centres unmarked) [IIIa-2-10], the inhibition in vivo at 50 mg/kg (50 mg/kg i.p.) is 44%.
The same measure, in the same setting: with `COC(C)CC(=O)Oc1cccc2c1C(=O)OC(C(CC(C)C)NC(=N)C(O)C(O)C(N)CC(=O)O)C2` (centres unmarked) [Vb-4-3] the figure was 66%.
